# Test results: US10383960B2, “Small molecule imaging of fungi by positron emission tomography scanning” (The United States of America, as represented by the …, priority 2013, dated 2019)
# Tested on: Aspergillus
# Text: Compounds such as calcofluor can be used for visualizing a broad range of medically relevant fungi under the microscope, due to their specific nature of binding, high level fluorescence (detectable under the microscope) and low binding to patient tissue. Calcofluor is a fairly non-toxic compound that is used to dye clothes, due to its high affinity for cellulose-containing cotton fibers. It has also been used to follow ground water migration due to its fluorescent properties and low toxicity.
compound,measurement,setting,value
O=S(=O)([O-])c1cc(Nc2nc(Nc3ccccc3)nc(N(CCO)CCO)n2)ccc1C=Cc1ccc(Nc2nc(Nc3ccccc3)nc(N(CCO)CCO)n2)cc1S(=O)(=O)[O-].[Na+].[Na+] [calcofluor],recovery of injected compound in lung tissue,in vivo,could be recovered in harvested lung tissue
same,fluorescent staining of fungal hyphae in lung tissue,"microscope, lung tissue removed from subject infected with Aspergillus",demonstrated fluorescent fungal hyphal forms under the microscope
